{"source": "patent US6160004A", "about": "“C-10 carbon-substituted artemisinin-like trioxane compounds having antimalarial, antiproliferative and antitumor activities” (priority 1998, dated 2000)", "key": {"[1]": {"details": "rat liver microsomes; cited from earlier work"}, "[2]": {"tested_on": "786-0", "assay": "cells", "format": "cell-based", "details": "Homo sapiens; 786-0, renal cancer, 48 h; read-out: Log10 TGI"}, "[3]": {"tested_on": "NCI-H322M", "assay": "cells", "details": "Homo sapiens, 48 h, read-out: Log10 TGI"}, "[4]": {"tested_on": "SN12C", "assay": "NCI 60 cell line panel screening assay (SRB), SN12C", "format": "cell-based", "details": "Homo sapiens, 48 h, read-out: Log10 TGI"}, "[5]": {"tested_on": "MALME-3M", "assay": "cells", "format": "cell-based", "details": "Homo sapiens, Malme-3M, 48 h, read-out: Log10 TGI"}, "[6]": {"tested_on": "UACC-257", "assay": "cells", "format": "cell-based", "details": "Homo sapiens, UACC-257, 48 h; read-out: Log10 TGI (converted)"}, "[7]": {"tested_on": "MOLT-4", "details": "MOLT-4, FIG. 6"}, "[8]": {"tested_on": "HCT-15", "assay": "cells", "format": "cell-based", "details": "Homo sapiens, HCT-15, colon cancer, 48 h"}, "[9]": {"tested_on": "LOX IMVI", "assay": "cells", "format": "cell-based", "details": "Homo sapiens, melanoma, 48 h, read-out: Log10 TGI (converted)"}, "[10]": {"tested_on": "OVCAR-3", "assay": "cells", "format": "cell-based", "details": "Homo sapiens; OVCAR-3, ovarian cancer, 48 h; read-out: Log10 TGI (converted)"}, "[11]": {"tested_on": "SR", "assay": "cells", "format": "cell-based", "details": "Homo sapiens, leukemia, 48 h, read-out: Log10 TGI"}, "[12]": {"tested_on": "HT29", "assay": "cells", "format": "cell-based", "details": "Homo sapiens, HT-29; HT29, colon cancer, 48 h; read-out: Log10 GI50 (converted)"}, "[13]": {"tested_on": "60 cell line panel", "assay": "NCI 60 cell line panel, whole panel", "details": "panel"}, "[14]": {"tested_on": "K-562", "assay": "cells", "format": "cell-based", "details": "Homo sapiens, K562; K-562, leukemia, 48 h; read-out: Log10 TGI (converted)"}, "[15]": {"tested_on": "KM12", "assay": "cells", "format": "cell-based", "details": "Homo sapiens; KM12, colon cancer, 48 h; read-out: Log10 TGI"}, "[16]": {"tested_on": "OVCAR-8", "assay": "cells", "format": "cell-based", "details": "Homo sapiens; OVCAR-8, ovarian cancer, 48 h; read-out: Log10 GI50 (converted)"}, "[17]": {"tested_on": "T-47D", "assay": "NCI 60 cell line panel screening assay (SRB), T-47D", "details": "Homo sapiens, T47D, 48 h, read-out: Log10 GI50 (converted)"}, "[18]": {"tested_on": "HCT-116", "assay": "cells", "format": "cell-based", "details": "Homo sapiens, HCT-116, 48 h"}, "[19]": {"tested_on": "SNB-19", "assay": "cells", "format": "cell-based", "details": "Homo sapiens; SNB-19, CNS cancer, 48 h; read-out: Log10 TGI"}, "[20]": {"tested_on": "RPMI-8226", "assay": "NCI 60 cell line panel screening assay (SRB), RPMI-8226", "format": "cell-based", "details": "Homo sapiens, RPMI-8226, leukemia, 48 h"}, "[21]": {"tested_on": "MDA-MB435", "assay": "NCI 60 cell line panel screening assay (SRB), MDA-MB435", "format": "cell-based", "details": "Homo sapiens, MDA-MB-435; printed MDA-MBA35, breast cancer, 48 h; read-out: Log10 GI50 (converted)"}, "[22]": {"tested_on": "MDA-MB231/ATCC", "assay": "cells", "format": "cell-based", "details": "Homo sapiens, MDA-MB-231, breast cancer, 48 h, read-out: Log10 TGI (converted)"}, "[23]": {"tested_on": "M14", "assay": "NCI 60 cell line panel screening assay (SRB), M14", "details": "Homo sapiens, M14, 48 h, read-out: Log10 TGI"}, "[24]": {"tested_on": "CCRF-CEM", "assay": "cells", "format": "cell-based", "details": "Homo sapiens, leukemia, 48 h, read-out: Log10 TGI"}, "[25]": {"tested_on": "MCF7/ADR-RES", "assay": "cells", "format": "cell-based", "details": "Homo sapiens; MCF7/ADR-RES, breast cancer, 48 h; read-out: Log10 TGI"}, "[26]": {"tested_on": "IGROVI", "assay": "NCI 60 cell line panel screening assay (SRB), IGROVI", "format": "cell-based", "details": "48 h, read-out: Log10 TGI"}, "[27]": {"tested_on": "OVCAR-5", "assay": "cells", "format": "cell-based", "details": "Homo sapiens; OVCAR-5, ovarian cancer, 48 h; read-out: Log10 TGI (converted)"}, "[28]": {"tested_on": "BT-549", "assay": "cells", "format": "cell-based", "details": "Homo sapiens, BT-549, breast cancer, 48 h"}, "[29]": {"tested_on": "NCI-H460", "assay": "cells", "format": "cell-based", "details": "Homo sapiens, NCI-H460, non-small cell lung cancer, 48 h"}, "[30]": {"tested_on": "MOLT-4", "assay": "cells", "details": "Homo sapiens, MOLT-4, 48 h"}, "[31]": {"tested_on": "OVCAR-4", "assay": "cells", "format": "cell-based", "details": "Homo sapiens, OVCAR-4, 48 h"}, "[32]": {"tested_on": "HL-60(TB)", "assay": "cells", "format": "cell-based", "details": "Homo sapiens, HL-60, 48 h, read-out: Log10 TGI"}, "[33]": {"tested_on": "DU-145", "assay": "cells", "format": "cell-based", "details": "Homo sapiens, DU-145, 48 h; read-out: Log10 TGI"}, "[34]": {"tested_on": "NCI-H522", "assay": "cells", "format": "cell-based", "details": "Homo sapiens; NCI-H522, non-small cell lung cancer, 48 h; read-out: Log10 TGI (converted)"}, "[35]": {"tested_on": "U251", "assay": "cells", "format": "cell-based", "details": "Homo sapiens, U-251; U251, CNS cancer, 48 h; read-out: Log10 TGI (converted)"}, "[36]": {"tested_on": "MDA-N", "assay": "NCI 60 cell line panel screening assay (SRB), MDA-N", "format": "cell-based", "details": "Homo sapiens, breast cancer, 48 h, read-out: Log10 GI50 (converted)"}, "[37]": {"tested_on": "PC-3", "assay": "cells", "format": "cell-based", "details": "Homo sapiens; PC-3, prostate cancer, 48 h; read-out: Log10 TGI"}, "[38]": {"tested_on": "HOP-62", "assay": "cells", "format": "cell-based", "details": "Homo sapiens; HOP-62, non-small cell lung cancer, 48 h; read-out: Log10 TGI (converted)"}, "[39]": {"tested_on": "SW-620", "assay": "NCI 60 cell line panel screening assay (SRB), SW-620", "format": "cell-based", "details": "Homo sapiens; SW-620, colon cancer, 48 h; read-out: Log10 TGI"}, "[40]": {"details": "cited from earlier work"}, "[41]": {"tested_on": "PE cells", "assay": "Viability by trypan blue exclusion", "format": "cell-based, murine (SENCAR mice)", "details": "96 hours"}, "[42]": {"details": "read-out: Log10 GI50 (converted)"}, "[43]": {"details": "read-out: Log10 TGI (converted)"}}, "data": [{"smiles": "CCO[C@H]1O[C@@H]2O[C@@]3(C)CC[C@H]4[C@H](C)CC[C@@H]([C@H]1C)[C@@]24OO3", "note": "[arteether]", "values": [{"measurement": "conversion into dihydroartemisinin", "setting": "[1]", "result": "rapidly converted"}]}, {"smiles": "CC(=O)O[C@H]1C(=O)[C@@]2(C)[C@H]([C@H](OC(=O)c3ccccc3)[C@]3(O)C[C@H](OC(=O)[C@H](O)[C@@H](NC(=O)c4ccccc4)c4ccccc4)C(C)=C1C3(C)C)[C@]1(OC(C)=O)CO[C@@H]1C[C@@H]2O", "note": "[Paclitaxel, reference compound]", "values": [{"measurement": "IC (TGI)", "setting": "[2]", "result": "> 100", "unit": "µM"}, {"measurement": "IC (TGI)", "setting": "[3]", "result": 34.7, "unit": "µM"}, {"measurement": "IC (TGI)", "setting": "[4]", "result": 51.3, "unit": "µM"}, {"measurement": "IC (TGI)", "setting": "[5]", "result": 34.7, "unit": "µM"}, {"measurement": "IC (TGI)", "setting": "[6]", "result": 30.2, "unit": "µM"}, {"measurement": "concentration for cytostasis (PG 0)", "setting": "[7]", "result": "greater than 10^-4 M"}, {"measurement": "GI50", "setting": "[8]; [42]", "result": 0.427, "unit": "µM"}, {"measurement": "IC (TGI)", "setting": "[8]; read-out: Log10 TGI", "result": "> 100", "unit": "µM"}, {"measurement": "IC (TGI)", "setting": "[9]", "result": 22.4, "unit": "µM"}, {"measurement": "IC (TGI)", "setting": "[10]", "result": 28.2, "unit": "µM"}, {"measurement": "IC (TGI)", "setting": "[11]", "result": "> 100", "unit": "µM"}, {"measurement": "GI50", "setting": "[12]", "result": "< 0.1", "unit": "pM"}, {"measurement": "Delta of Log10 LC50", "setting": "[13]", "result": -4.06}, {"measurement": "Delta of Log10 TGI", "setting": "[13]", "result": -4.54}, {"measurement": "Range of Log10 TGI", "setting": "[13]", "result": 7.20}, {"measurement": "IC (TGI)", "setting": "[14]", "result": "> 100", "unit": "µM"}, {"measurement": "IC (TGI)", "setting": "[15]", "result": 43.7, "unit": "µM"}, {"measurement": "GI50", "setting": "[16]", "result": 0.0178, "unit": "nM"}, {"measurement": "GI50", "setting": "[17]", "result": 0.000155, "unit": "µM"}, {"measurement": "GI50", "setting": "[18]; [42]", "result": "< 0.1", "unit": "pM"}, {"measurement": "IC (TGI)", "setting": "[18]; [43]", "result": 15.1, "unit": "µM"}, {"measurement": "IC (TGI)", "setting": "[19]", "result": "> 100", "unit": "µM"}, {"measurement": "GI50", "setting": "[20]; [42]", "result": "< 0.1", "unit": "pM"}, {"measurement": "IC (TGI)", "setting": "[20]; read-out: Log10 TGI", "result": "> 100", "unit": "µM"}, {"measurement": "GI50", "setting": "[21]", "result": "< 0.1", "unit": "pM"}, {"measurement": "IC (TGI)", "setting": "[22]", "result": 14.5, "unit": "µM"}, {"measurement": "IC (TGI)", "setting": "[23]", "result": 24, "unit": "µM"}, {"measurement": "IC (TGI)", "setting": "[24]", "result": "> 100", "unit": "µM"}, {"measurement": "IC (TGI)", "setting": "[25]", "result": "> 100", "unit": "µM"}, {"measurement": "IC (TGI)", "setting": "[26]", "result": 64.6, "unit": "µM"}, {"measurement": "IC (TGI)", "setting": "[27]", "result": 12, "unit": "µM"}, {"measurement": "GI50", "setting": "[28]; [42]", "result": 0.00049, "unit": "µM"}, {"measurement": "IC (TGI)", "setting": "[28]; [43]", "result": 0.479, "unit": "µM"}, {"measurement": "GI50", "setting": "[29]; [42]", "result": "< 0.1", "unit": "pM"}, {"measurement": "IC (TGI)", "setting": "[29]; [43]", "result": 12, "unit": "µM"}, {"measurement": "CC50", "setting": "[30]; read-out: Log10 LC50 (converted)", "result": "> 100", "unit": "µM"}, {"measurement": "IC (TGI)", "setting": "[30]; read-out: Log10 TGI", "result": "> 100", "unit": "µM"}, {"measurement": "GI50", "setting": "[31]; [42]", "result": 10, "unit": "µM"}, {"measurement": "IC (TGI)", "setting": "[31]; read-out: Log10 TGI", "result": 64.6, "unit": "µM"}, {"measurement": "IC (TGI)", "setting": "[32]", "result": "> 29.5", "unit": "µM"}, {"measurement": "IC (TGI)", "setting": "[33]", "result": "> 100", "unit": "µM"}, {"measurement": "IC (TGI)", "setting": "[34]", "result": 6.31, "unit": "pM"}, {"measurement": "IC (TGI)", "setting": "[35]", "result": 47.9, "unit": "µM"}, {"measurement": "GI50", "setting": "[36]", "result": "< 0.1", "unit": "pM"}, {"measurement": "IC (TGI)", "setting": "[37]", "result": "> 100", "unit": "µM"}, {"measurement": "IC (TGI)", "setting": "[38]", "result": 15.8, "unit": "µM"}, {"measurement": "IC (TGI)", "setting": "[39]", "result": "> 100", "unit": "µM"}]}, {"smiles": "C[C@@H]1CC[C@H]2[C@@H](C)C(O)O[C@@H]3O[C@@]4(C)CC[C@@H]1[C@]32OO4", "note": "(some centres unmarked) [dihydroartemisinin]", "values": [{"measurement": "half-life in plasma", "setting": "[40]", "result": "less than two"}]}, {"smiles": "C=C1/C(=C\\C=C2/CCC[C@]3(C)[C@@H]([C@H](C)CCCC(C)(C)O)CC[C@@H]23)C[C@@H](O)C[C@@H]1O", "note": "[calcitriol, 1α, 25-dihydroxyvitamin D3]", "values": [{"measurement": "viability of treated cells", "setting": "[41]", "result": "identical to control cells"}]}]}
